Values quoted from earlier work as cited in patent publication US20240398763A1, “ORAL DOSAGE FORM CONTAINING ONCOLOGICAL ACTIVE INGREDIENT” (OWP Pharmaceuticals, Inc., priority 2023, published 2024).
≈ marks a conversion by molar mass, not a printed value. Counter-ions that a name gives are not always drawn. Like-named read-outs stand apart in the source and are kept apart here. Each block holds one compound with its values, some of them ahead of it.

[1] = in water / aqueous media, in words

SMILES: CC(C)(O)CNc1nc(Nc2ccnc(C(F)(F)F)c2)nc(-c2cccc(C(F)(F)F)n2)n1 [enasidenib]
Solubility (aqueous solutions across physiological pH range (pH 1.2 and 7.4)): (solubility ≤74 mcg/mL) | Solubility [1]: practically insoluble

SMILES: C[C@]12CC[C@@H]3c4ccc(OC(=O)N(CCCl)CCCl)cc4CC[C@H]3[C@@H]1CC[C@@H]2OP(=O)(O)O [estramustine phosphate]
Solubility [1]: water soluble

SMILES: Cc1nc(NC(=O)N2CCC[C@H]2C(N)=O)sc1-c1ccnc(C(C)(C)C(F)(F)F)c1 [alpelisib]
Solubility [1]: insoluble in water

SMILES: Cc1cc(Nc2ncc(Cl)c(Nc3ccccc3S(=O)(=O)C(C)C)n2)c(OC(C)C)cc1C1CCNCC1 [ceritinib]
Solubility [1]: insoluble in water

SMILES: Nc1ncn([C@@H]2O[C@H](CO)[C@@H](O)[C@H]2O)c(=O)n1 [azacitidine]
Solubility [1]: water soluble

SMILES: Nc1ncn([C@H]2C[C@H](O)[C@@H](CO)O2)c(=O)n1 [decitabine]
Solubility (condition not given): 22.5 mg/mL; unknown

SMILES: Cn1cnc2c(F)c(Nc3ccc(Br)cc3F)c(C(=O)NOCCO)cc21 [binimetinib]
Solubility [1]: Slightly soluble at pH 1,

SMILES: O=P1(N(CCCl)CCCl)NCCCO1 (stereo not shown) [cyclophosphamide]
Solubility [1]: water soluble

SMILES: CCc1cc2c(cc1N1CCC(N3CCOCC3)CC1)C(C)(C)c1[nH]c3cc(C#N)ccc3c1C2=O [alectinib]
Solubility [1]: insoluble in water

SMILES: CCN1CCN(Cc2ccc(Nc3ncc(F)c(-c4cc(F)c5nc(C)n(C(C)C)c5c4)n3)nc2)CC1 [abemaciclib]
Solubility [1]: insoluble in water

SMILES: Cc1cnc(Nc2ccc(OCCN3CCCC3)cc2)nc1Nc1cccc(S(=O)(=O)NC(C)(C)C)c1 [fedratinib]
Solubility (pH 1): condition (>100 mg/mL | Solubility (pH 7.4): (4 mcg/mL at pH 7.4)

SMILES: CCCCCOC(=O)Nc1nc(=O)n([C@@H]2O[C@H](C)C(O)C2O)cc1F (stereo partly drawn) [capecitabine, pentyl ester [1-(5-deoxy-β-d-ribofuranosyl)-5-fluoro-1,2-dihydro-2-oxo-4-pyrimidinyl]-carbamic acid, reference compound]
Solubility (at 25° C.): 6 mg/mL at 25 °C

SMILES: C=CC(=O)N1CC[C@H](n2nc(C#Cc3cc(OC)cc(OC)c3)c3c(N)ncnc32)C1 [futibatinib]
Solubility [1]: insoluble in water

SMILES: C[C@@H](Oc1cc(-c2cnn(C3CCNCC3)c2)cnc1N)c1c(Cl)ccc(F)c1Cl [crizotinib]
Solubility (pH 1.6): greater than 10 mg/mL

SMILES: Nc1nc(F)nc2c1ncn2[C@@H]1O[C@H](COP(=O)(O)O)[C@@H](O)[C@@H]1O [fludarabine phosphate]
Solubility (condition not given): 3 mg/mL

SMILES: O=NN(CCCl)C(=O)NC1CCCCC1 [lomustine]
Solubility [1]: insoluble in water

SMILES: CC(C)C(=O)Nc1ccc([N+](=O)[O-])c(C(F)(F)F)c1 [flutamide]
Solubility [1]: insoluble in water

SMILES: CO[C@H]1C[C@@H]2CC[C@@H](C)[C@@](O)(O2)C(=O)C(=O)N2CCCC[C@H]2C(=O)O[C@H]([C@H](C)C[C@@H]2CC[C@@H](OCCO)[C@H](OC)C2)CC(=O)[C@H](C)/C=C(\C)[C@@H](O)[C@@H](OC)C(=O)[C@H](C)C[C@H](C)/C=C/C=C/C=C/1C [everolimus]
Solubility [1]: insoluble in water

SMILES: CNC(=O)c1ccccc1Sc1ccc2c(/C=C/c3ccccn3)n[nH]c2c1 [axitinib]
Solubility (aqueous media over the range pH 1.1 to pH 7.8): excess of 0.2 μg/mL

SMILES: CS(=O)(=O)CCNCc1ccc(-c2ccc3ncnc(Nc4ccc(OCc5cccc(F)c5)c(Cl)c4)c3c2)o1 [lapatinib]
Solubility (condition not given): 0.007 mg/mL (≈ 12 µM)

SMILES: Cn1cc(-c2cc3c(N4CCN(c5ncc([C@@](C)(N)c6ccc(F)cc6)cn5)CC4)ncnn3c2)cn1 [avapritinib]
Solubility [1]: insoluble in water

Further lines, results first:

Solubility (aqueous media, pH 1.99): 0.880 mg/mL to
SMILES: CO[C@]1(C(=O)N[C@@H](C)c2ccc(-n3cc(F)cn3)nc2)CC[C@H](c2nc(C)cc(Nc3cc(C)[nH]n3)n2)CC1 [pralsetinib]

Solubility [1]: slightly soluble in water
SMILES: COc1cc2nccc(Oc3ccc(NC(=O)NC4CC4)c(Cl)c3)c2cc1C(N)=O [lenvatinib]

Solubility (all pH solutions): ~0.01 mg/mL (≈ 36.6 µM)
SMILES: Nc1cccc2c1C(=O)N(C1CCC(=O)NC1=O)C2=O (stereo not shown) [pomalidomide]

Solubility [1]: insoluble in water
SMILES: CO[C@@H]1[C@H](N(C)C(=O)c2ccccc2)C[C@H]2O[C@]1(C)n1c3ccccc3c3c4c(c5c6ccccc6n2c5c31)C(=O)NC4 [midostaurin]

Solubility (pH 1.0 solution at 37° C.): solubility of 152 mg/mL
SMILES: C=CC(=O)Nc1cc(Nc2ncc(C(=O)OC(C)C)c(-c3cn(C)c4ccccc34)n2)c(OC)cc1N(C)CCN(C)C [mobocertinib]

Aqueous solubility (at 37° C., in words): freely soluble at pH 6.8)
SMILES: O=C(Nc1cnn2ccc(N3CCC[C@@H]3c3cc(F)ccc3F)nc12)N1CC[C@H](O)C1 [larotrectinib]

Solubility [1]: insoluble in water
SMILES: COc1cc2nccc(Oc3ccc(NC(=O)Nc4cc(C)on4)c(Cl)c3)c2cc1OC [tivozanib]

Solubility [1]: insoluble in water
SMILES: O=C(/C=C\n1cnc(-c2cc(C(F)(F)F)cc(C(F)(F)F)c2)n1)NNc1cnccn1 [selinexor]

Water solubility (at 37° C.): 37 °C is 0.63 mg/mL
SMILES: CN(C)CCOc1ccc(/C(=C(/CCCl)c2ccccc2)c2ccccc2)cc1 [toremifene citrate]

Solubility [1]: insoluble in water
SMILES: CN1CCC(COc2cnc(-c3cccc(Cn4nc(-c5cccc(C#N)c5)ccc4=O)c3)nc2)CC1 [tepotinib]

Solubility [1]: water soluble; water
SMILES: O=c1[nH]c(=O)n([C@H]2C[C@H](O)[C@@H](CO)O2)cc1C(F)(F)F [trifluridine]

Solubility [1]: insoluble in water
SMILES: Cn1ncnc1[C@H]1c2n[nH]c(=O)c3cc(F)cc(c23)N[C@@H]1c1ccc(F)cc1 [talazoparib tosylate]

Solubility (aqueous media over the range pH 1.2 to pH 6.8): is in excess of 25 mg/mL
SMILES: CCN(CC)CCNC(=O)c1c(C)[nH]c(/C=C2\C(=O)Nc3ccc(F)cc32)c1C [sunitinib malate]

Solubility [1]: insoluble in water
SMILES: CC(=O)O[C@]1(C(C)=O)CC[C@H]2[C@@H]3C[C@H](C)C4=CC(=O)CC[C@]4(C)[C@H]3CC[C@@]21C [medroxyprogesterone acetate]

Solubility (approximate pH 5.0 and above): (0.08 mg/mL or less) | Solubility (pH 1.2): 1.2 (32.90 mg/mL) and
SMILES: CCOc1cc2ncc(C#N)c(Nc3ccc(OCc4ccccn4)c(Cl)c3)c2cc1NC(=O)/C=C/CN(C)C [neratinib]

Solubility (condition not given): 7 mg/mL (≈ 36100 µM)
SMILES: Cn1nnc2c(C(N)=O)ncn2c1=O [temozolomide]

Solubility (in water at 25° C.): 0.04 mg per mL in
SMILES: CONC(=O)Nc1ccc(-c2sc3c(c2CN(C)C)c(=O)n(-c2ccc(OC)nn2)c(=O)n3Cc2c(F)cccc2F)cc1 [relugolix]

Solubility [1]: water soluble
SMILES: Cc1nccn1CC1CCc2c(c3ccccc3n2C)C1=O (stereo not shown) [ondansetron hydrochloride]

Solubility (aqueous media, pH 6.8): 0.03 mg/mL (≈ 53.5 µM)
SMILES: C=CC(=O)N1CCN(c2nc(=O)n(-c3c(C)ccnc3C(C)C)c3nc(-c4c(O)cccc4F)c(F)cc23)[C@@H](C)C1 [sotorasib]

Solubility [1]: insoluble in water
SMILES: Clc1ccc(C(c2ccccc2Cl)C(Cl)Cl)cc1 (stereo not shown) [mitotane]

Solubility [1]: insoluble in water
SMILES: N[C@@H](Cc1cc(I)c(Oc2cc(I)c(O)c(I)c2)c(I)c1)C(=O)O [levothyroxine sodium]

Solubility [1]: water soluble; water
SMILES: N=C1CCCN1Cc1[nH]c(=O)[nH]c(=O)c1Cl [tipiracil hydrochloride]

Solubility [1]: insoluble in water
SMILES: C=CC(=O)Nc1cc(Nc2nccc(-c3cn(C)c4ccccc34)n2)c(OC)cc1N(C)CCN(C)C [osimertinib]

Solubility [1]: insoluble in water
SMILES: CC1=C(/C=C/C(C)=C/C=C/C(C)=C/C(=O)O)C(C)(C)CCC1 [tretinoin]

Solubility [1]: insoluble in water
SMILES: Cc1ccc(Nc2nccc(N(C)c3ccc4c(C)n(C)nc4c3)n2)cc1S(N)(=O)=O [pazopanib]
